Laboratory results published in ChEMBL document CHEMBL5053539, “THC shows activity against cultured Plasmodium falciparum” (Bioorg Med Chem Lett, 2021).

Experiments:
Plasmodium falciparum [1] = assay: Antiplasmodial activity against chloroquine-sensitive Plasmodium falciparum NF54; format: functional, organism-based
Hemozoin = assay: Inhibition of Beta-hematin in Plasmodium falciparum cells assessed as hemozoin formation after 32 hrs by NP40 detergent-mediated assay
Plasmodium falciparum [2] = assay: Antiplasmodial activity against multidrug-resistant Plasmodium falciparum K1; format: functional, organism-based

Work on C=C(C)[C@@H]1CCC(C)=C[C@H]1c1c(O)cc(CCCCC)cc1O [CANNABIDIOL] yielded an IC50 (Plasmodium falciparum [1]) of 4.1 µM and an IC50 (Hemozoin) of 51.1 µM.

CCN(CC)CCCC(C)Nc1ccnc2cc(Cl)ccc12 (stereo unspecified) [CHLOROQUINE] was tested, and the IC50 (Hemozoin) was 16.8 µM.

In the case of CCCCCc1cc(O)c2c(c1)OC(C)(C)[C@@H]1CCC(C)=C[C@@H]21 [DRONABINOL], the IC50 (Plasmodium falciparum [1]) is reported as 0.79 µM, the IC50 (Plasmodium falciparum [2]) is reported as 0.72 µM and the IC50 (Hemozoin) is reported as 11.3 µM.
